This test is described as follows: HCV replicon assay (luciferase reporter, ET cell line). Format: cell-based. The settings on record: Hepatitis C virus, HCV replicon luciferase activity in ET cells. As for the experimental part: A cell line, ET (Huh-lucubineo-ET) is used for screening of compounds for inhibiting HCV RNA dependent RNA polymerase. The ET cell line is stably transfected with RNA transcripts harboring a I389 luc-ubi-neo/NS3-3′/ET; replicon with firefly luciferase-ubiquitin-neomycin phosphotransferase fusion protein and EMCV-IRES driven NS3-5B polyprotein containing the cell culture adaptive mutations (E1202G; T1280I; K1846T) (Krieger at al, 2001 and unpublished). The ET cells are grown in DMEM (Dulbeco's Modified Eagle's Medium), supplemented with 10% fetal calf serum, 2 mM Glutamine, Penicillin (100 IU/mL)/Streptomycin (100 μg/mL), 1× nonessential amino acids, and 250 μg/mL G418 (“Geneticin”). They are all available through Life Technologies (Bethesda, Md.). The cells are plated at 0.5−1.0×10^4 cells/well in the 96 well plates and incubated for 24 hrs before adding test compound. The compounds are added to the cells to achieve a final concentration of 0.1 nM to 50 μm and a final DMSO (dimethylsulfoxide) concentration of 0.5%. Luciferase activity is measured 48-72 hours later by adding a lysis buffer and the substrate (Catalog number Glo-lysis buffer E2661 and Bright-Glo luciferase system E2620 Promega, Madison, Wis.). Cells should not be too confluent during the assay. Percent inhibition of replication data is plotted relative to no compound control. Under the same condition, cytotoxicity of the compounds are determined using cell proliferation reagent, WST-1 (Roche, Germany). The compounds showing antiviral activities, but no significant cytotoxicities are chosen to determine EC50 and TC50. For these determinations, a 10 point, 2-fold serial dilution for each compound was used, which spans a concentration range of 1000 fold. EC50 and similarly TC50 values were calculated by fitting % inhibition at each concentration to the following equation:
% inhibition=100%/[(EC50/[I])^b+1]
where b is Hill's coefficient.
% inhibition values at a specific concentration, […] for example, can also be derived from the equation above.
(In antiviral work, replicon cells carry a viral genome segment that copies itself.)
For orientation: inhibition means the relative decrease from the control value, in per cent. Read a low inhibition as little suppression. `O=C(c1nc2c(C(F)(F)F)cc(-c3cn[nH]c3)cn2c1Cl)N1CCC(c2cccs2)C1` (stereo not shown) [Compound 441, [3-Chloro-6-(1H-pyrazol-4-yl)-8-trifluoromethyl-imidazo[1,2-a]pyridin-2-yl]-(3-thiophen-2-yl-pyrrolidin-1-yl)-methanone] showed an inhibition at 10 µM of 97.6%.
Take `Cc1c(C(=O)NCc2cccs2)nc2c(C(F)(F)F)cc(-c3ccco3)cn12` [Compound 156, 6-Furan-2-yl-3-methyl-8-trifluoromethyl-imidazo[1,2-a]pyridine-2-carboxylic acid (thiophen-2-ylmethyl)-amide]: the inhibition at 10 µM was 89.3%.
For `Cc1noc(C2CCN(C(=O)c3nc4c(C(F)(F)F)cc(-c5cn[nH]c5)cn4c3Cl)C2)n1` (stereo not shown) [Compound 476, [3-Chloro-6-(1H-pyrazol-4-yl)-8-trifluoromethyl-imidazo[1,2-a]pyridin-2-yl]-[3-(3-methyl-[1,2,4]oxadiazol-5-yl)-pyrrolidin-1-yl]-methanone] the value was 72%.
Consider `O=C(NCc1cccs1)c1cn2cc(-c3cccc(F)c3)cc(C(F)(F)F)c2n1` [Compound 314, 6-(3-Fluoro-phenyl)-8-trifluoromethyl-imidazo[1,2-a]pyridine-2-carboxylic Acid (thiophen-2-ylmethyl)-amide], for which testing at 10 µM gave an inhibition of 49.6%.
As for `O=C(NC(c1ccccc1)c1cccs1)c1nc2c(C(F)(F)F)cc(-c3ccoc3)cn2c1Cl` (stereo not shown) [Compound 602, 3-Chloro-6-furan-3-yl-8-trifluoromethyl-imidazo[1,2-a]pyridine-2-carboxylic Acid (phenyl-thiophen-2-yl-methyl)-amide], the figure is 90.5%; as for `C/C=C\c1c(C(=O)NCc2cccs2)nc2c(C(F)(F)F)cc(-c3cccc(F)c3)cn12` [Compound 300, 6-(3-Fluoro-phenyl)-3-propenyl-8-trifluoromethyl-imidazo[1,2-a]pyridine-2-carboxylic Acid(thiophen-2-ylmethyl)-amide], 76.9%.
As for `O=C(c1nc2c(C(F)(F)F)cc(-c3ccco3)cn2c1Cl)N1Cc2cccnc2C1` [Compound 217, (3-Chloro-6-furan-2-yl-8-trifluoromethyl-imidazo[1,2-a]pyridin-2-yl)-(5,7-dihydro-pyrrolo[3,4-b]pyridin-6-yl)-methanone], the figure is 38.8%; as for `O=C(Nc1ccccc1)Nc1nc2c(C(F)(F)F)cc(-c3ccco3)cn2c1Cl` [Compound 211, 1-(3-Chloro-6-furan-2-yl-8-trifluoromethyl-imidazo[1,2-a]pyridin-2-yl)-3-phenyl-urea], 51.8%.
`O=C(c1cn2cc(-c3ccoc3)cc(C(F)(F)F)c2n1)N1CCC(c2ccccc2F)C1` (stereo not shown) [Compound 337, [3-(2-Fluoro-phenyl)-pyrrolidin-1-yl]-(6-furan-3-yl-8-trifluoromethyl-imidazo[1,2-a]pyridin-2-yl)-methanone] had an inhibition at 10 µM of 97.7%.
For `O=C(NCc1cccs1)c1nc2c(C(F)(F)F)cc(-c3ccc[nH]3)cn2c1Cl` [Compound 293, 3-Chloro-6-(1H-pyrrol-2-yl)-8-trifluoromethyl-imidazo[1,2-a]pyridine-2-carboxylic Acid(thiophen-2-ylmethyl)-amide] the value was 87.2%; for `CS(=O)(=O)NC1CN(C(=O)c2nc3c(C(F)(F)F)cc(-c4cn[nH]c4)cn3c2Br)C1` [Compound 522, N-{1-[3-Bromo-6-(1H-pyrazol-4-yl)-8-trifluoromethyl-imidazo[1,2-a]pyridine-2-carbonyl]-azetidin-3-yl}-methanesulfonamide], 88.6%; for `N#Cc1ccccc1C1CCN(C(=O)c2nc3c(C(F)(F)F)cc(-c4ccoc4)cn3c2Cl)CC1` [Compound 540, 2-[1-(3-Chloro-6-furan-3-yl-8-trifluoromethyl-imidazo[1,2-a]pyridine-2-carbonyl)-piperidin-4-yl]-benzonitrile], 98.6%.
For `N#Cc1cc(-c2ccccc2)cc2cc(C(=O)NCc3cccs3)nn12` [Compound 108, 7-Cyano-5-phenyl-pyrazolo[1,5-a]pyridine-2-carboxylic acid (thiophen-2-ylmethyl)-amide] the value was 52.2%.
As for `N#Cc1ccc(F)cc1C1=CCN(C(=O)c2nc3c(C(F)(F)F)cc(-c4ccoc4)cn3c2Cl)CC1` [Compound 569, 2-[1-(3-Chloro-6-furan-3-yl-8-trifluoromethyl-imidazo[1,2-a]pyridine-2-carbonyl)-1,2,3,6-tetrahydro-pyridin-4-yl]-4-fluoro-benzonitrile], the figure is 85.3%; as for `O=C(NCc1cccs1)c1nc2c(C(F)(F)F)cc(-c3ncon3)cn2c1Cl` [Compound 311, 3-Chloro-6-[1,2,4]oxadiazol-3-yl-8-trifluoromethyl-imidazo[1,2-a]pyridine-2-carboxylic Acid (thiophen-2-ylmethyl)-amide], 83.2%.
For the compound `O=C(c1nc2c(C(F)(F)F)cc(-c3ccoc3)cn2c1Cl)N1CC(NS(=O)(=O)Cc2ccccc2)C1` [Compound 493, N-[1-(3-Chloro-6-furan-3-yl-8-trifluoromethyl-imidazo[1,2-a]pyridine-2-carbonyl)-azetidin-3-yl]-C-phenyl-methanesulfonamide], the inhibition at 10 µM turned out to be 91.4%.
In the case of `O=C(NCc1cccc(F)c1)NCc1cn2cc(-c3ccoc3)cc(C(F)(F)F)c2n1` [Compound 398, 1-(3-Fluoro-benzyl)-3-(6-furan-3-yl-8-trifluoromethyl-imidazo[1,2-a]pyridine-2-ylmethyl)-urea], the inhibition at 10 µM came out at 86.9%.
For `Cc1ccccc1C1CCN(C(=O)c2nc3c(C(F)(F)F)cc(-c4ccoc4)cn3c2Cl)CC1` [Compound 542, (3-Chloro-6-furan-3-yl-8-trifluoromethyl-imidazo[1,2-a]pyridin-2-yl)-(4-o-tolyl-piperidin-1-yl)-methanone], 10 µM produced 72.4% inhibition.
For the compound `COc1cccc(CNC(=O)c2nc3c(C(F)(F)F)cc(-c4ccco4)cn3c2Cl)c1` [Compound 191, 3-Chloro-6-furan-2-yl-8-trifluoromethyl-imidazo[1,2-a]pyridine-2-carboxylic acid 3-methoxy-benzylamide], 10 µM produced 2.3% inhibition.
`CNC(=O)Cc1c(C(=O)N2CCC(c3ccc(F)cc3)C2)nc2c(C(F)(F)F)cc(-c3ccoc3)cn12` (stereo not shown) [Compound 245, 2-{2-[3-(4-Fluoro-phenyl)-pyrrolidine-1-carbonyl]-6-furan-3-yl-8-trifluoromethyl-imidazo[1,2-a]pyridin-3-yl}-N-methyl-acetamide] had an inhibition at 10 µM of 63.9%.
In turn, `O=C(NCc1cccs1)c1nc2c(C(F)(F)F)cc(-c3ccccc3)nn2c1Cl` [Compound 249, 3-Chloro-6-phenyl-8-trifluoromethyl-imidazo[1,2-b]pyridazine-2-carboxylic Acid(thiophen-2-ylmethyl)-amide] showed an inhibition at 10 µM of 81.4%.
As for `O=C(O)Cc1c(C(=O)N2CCC(c3ccc(F)cc3)C2)nc2c(C(F)(F)F)cc(-c3ccoc3)cn12` (stereo not shown) [Compound 236, {2-[3-(4-Fluoro-phenyl)-pyrrolidine-1-carbonyl]-6-furan-3-yl-8-trifluoromethyl-imidazo[1,2-a]pyridin-3-yl}-acetic Acid], the figure is 49%.
The compound `O=C(NCc1ccccc1)c1nc2c(C(F)(F)F)cc(-c3ccco3)cn2c1Cl` [Compound 174, 3-Chloro-6-furan-2-yl-8-trifluoromethyl-imidazo[1,2-a]pyridine-2-carboxylic acid benzylamide] returned an inhibition at 10 µM of 85.7%.
As for `FC(F)(F)c1cc(-c2ccoc2)cn2cc(-c3cc(-c4ccccc4)no3)nc12` [Compound 654, 6-Furan-3-yl-2-(3-phenyl-isoxazol-5-yl)-8-trifluoromethyl-imidazo[1,2-a]pyridine], the figure is 20.4%.
For `O=C(Cc1ccccc1)NCc1nc2c(C(F)(F)F)cc(-c3ccoc3)cn2c1Cl` [Compound 389, N-(3-Chloro-6-furan-3-yl-8-trifluoromethyl-imidazo[1,2-a]pyridin-2-ylmethyl)-2-phenyl-acetamide] the value was 45.3%; for `CC(=O)c1cc(C(F)(F)F)c2nc(C(=O)N3CCC(c4cccc(F)c4)C3)c(Cl)n2c1` (stereo not shown) [Compound 642, 1-{3-Chloro-2-[3-(3-fluoro-phenyl)-pyrrolidine-1-carbonyl]-8-trifluoromethyl-imidazo[1,2-a]pyridin-6-yl}-ethanone], 73.8%.
With `O=C(c1nc2c(C(F)(F)F)cc(-c3ccoc3)cn2c1Cl)N1CC=C(c2c(F)cccc2F)CC1` [Compound 564, (3-Chloro-6-furan-3-yl-8-trifluoromethyl-imidazo[1,2-a]pyridin-2-yl)-[4-(2,6-difluoro-phenyl)-3,6-dihydro-2H-pyridin-1-yl)-methanone], the inhibition at 10 µM came to 99%.
For `O=C(NCc1cccs1)c1cc2cc(-c3ccco3)cc(Cl)c2[nH]1` [Compound 105, 7-Chloro-5-furan-2-yl-1H-indole-2-carboxylic acid (thiophen-2-ylmethyl)-amide] the value was 58.2%.

The record behind these values is patent publication US20120121540A1 (priority 2007, published 2012).
